These results are taken from ChEMBL document CHEMBL4052711, “Synthesis of 4- and 5-arylthiazolinethiones as inhibitors of indoleamine 2,3-dioxygenase” (Bioorg Med Chem Lett, 2017).

Experiment [1] concerns the target T1, Indoleamine 2,3-dioxygenase 1 (Homo sapiens, UniProt P14902). Description: Inhibition of human IDO1 at 100 uM pre-incubated for 10 mins before L-Trp as substrate addition and measured after 30 mins by colorimetry.
Target sequence in this assay (P14902 whole entry, looked up): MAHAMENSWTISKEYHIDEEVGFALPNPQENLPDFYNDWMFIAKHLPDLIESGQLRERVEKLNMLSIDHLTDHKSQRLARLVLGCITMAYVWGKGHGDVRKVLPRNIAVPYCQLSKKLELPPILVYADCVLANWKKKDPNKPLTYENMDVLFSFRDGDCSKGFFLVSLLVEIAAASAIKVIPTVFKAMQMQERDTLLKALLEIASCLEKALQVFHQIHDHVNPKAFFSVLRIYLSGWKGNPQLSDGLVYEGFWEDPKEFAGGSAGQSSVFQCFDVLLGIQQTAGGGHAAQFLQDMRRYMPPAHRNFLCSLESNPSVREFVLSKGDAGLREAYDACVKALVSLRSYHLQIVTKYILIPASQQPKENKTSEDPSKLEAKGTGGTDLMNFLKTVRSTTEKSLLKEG
In experiment [2] the target is T1, Indoleamine 2,3-dioxygenase 1. Description: Inhibition of human IDO1 at 10 uM pre-incubated for 10 mins before L-Trp as substrate addition and measured after 30 mins by colorimetry.
Target sequence in this assay (P14902 whole entry, looked up): as above
The target is the same in experiment [3]. Description: Inhibition of human IDO1 pre-incubated for 10 mins before L-Trp as substrate addition and measured after 30 mins by colorimetry.
Target sequence in this assay (P14902 whole entry): as the sequence (P14902 whole entry, looked up) above

The structures appear in SMILES notation.

`O=C(O)c1ccccc1-c1csc(=S)[nH]1` yielded an inhibition in experiment [1] of 8%.
Same read-out and setting: then `Fc1ccccc1-c1c[nH]c(=S)s1`, with 29%; and `Cc1ccc(-c2c[nH]c(=S)s2)cc1`, with 15%.
On the same count and under the same terms, then `FC(F)(F)c1ccc(-c2csc(=S)[nH]2)cc1`, with 37%.
Molecule `Brc1nc(-c2ccccc2)cs1` displayed an inhibition in experiment [1] of 12%.
`Fc1ccc(-c2csc(S)n2)cc1` showed an inhibition in experiment [1] of 72%.
Still for that read-out and setting: then `S=c1[nH]cc(-c2ccccc2)s1`, with 16%.
On the same count and under the same terms, next, `COc1ccc(-c2c[nH]c(=S)s2)cc1`: 0%.
For `Sc1nc(-c2ccc(Cl)cc2)cs1`, the inhibition in experiment [2] stood at 79%; in experiment [1], 95%. In addition, the IC50 in experiment [3] (read-out: IC50) is 2.6 µM; in experiment [3] (read-out: pIC50 (converted)), 2.86 µM.
As to `Oc1nc(-c2ccccc2)cs1`, in experiment [1], the inhibition stood at 15%.
The same measure, in the same setting: next, `COc1ccccc1-c1c[nH]c(=S)s1`: 12%.
`Nc1nc(-c2ccccc2)cs1` registered an inhibition in experiment [1] of 13%.
Regarding `COc1ccccc1-c1csc(=S)[nH]1`, the inhibition in experiment [1] amounted to 53%.
On the same count and under the same terms, then `OCc1cccc(-c2csc(=S)[nH]2)c1`, with 16%; and `S=c1[nH]cc(-c2cccc(Br)c2)s1`, with 48%; and `COc1ccc(-c2csc(=S)[nH]2)cc1`, with 68%.
Consider `Cc1ccc(-c2csc(S)n2)cc1`, for which the results for the inhibition in experiment [2] and in experiment [1] were 39% and 90%, respectively. Moreover, the IC50 in experiment [3] (read-out: IC50) worked out at 5.9 µM.
For the molecule `Fc1ccccc1-c1csc(=S)[nH]1`, the inhibition in experiment [1] is 77%.
In turn, `S=c1[nH]c(-c2cccc(Cl)c2)cs1` came in with an inhibition in experiment [1] of 40%.
Take `Sc1nc(-c2ccccc2)cs1`: the inhibition was determined as 35% in experiment [2] and 76% in experiment [1].
In experiment [1], `Fc1cccc(-c2csc(=S)[nH]2)c1` displayed an inhibition of 28%.
As to `S=c1[nH]c(-c2ccc(Br)cc2)cs1`, the inhibition in experiment [2] was determined as 88%; in experiment [1], 100%. In experiment [3] (read-out: IC50), the IC50 was found to be 3.4 µM.
In the case of `Clc1nc(-c2ccccc2)cs1`, the inhibition in experiment [1] amounted to 0.5%.
Turning to `S=c1[nH]c(-c2cccc(Br)c2)cs1`, the inhibition in experiment [1] was determined as 81%.
On to `S=c1[nH]c(-c2cccnc2)cs1`, for which the inhibition in experiment [1] stood at 48%.
On the same count and under the same terms, then `S=c1[nH]c(-c2ccncc2)cs1`, with 21%; and `N#Cc1ccc(-c2csc(=S)[nH]2)cc1`, with 8%.
